Measured values reported in patent US11666578B2, “Small molecule inhibitors of CDK12/CDK13” (The Scripps Research Institute, priority 2018, dated 2023).

Legend:
CYP 2C9 = CYP 2C9 (Homo sapiens, UniProt P11712); experiment: Cytochrome P450 inhibition assay, 2C9; format: in vitro ADME; note: test concentration or dose not given here
[1] = Microsome stability, mouse liver microsomes; format: in vitro ADME; conditions: read-out: Microsome stability t1/2
CK1δ = CK1δ (Homo sapiens, UniProt P48730); experiment: In-house kinase inhibition assay, CK1δ; format: biochemical; conditions: read-out: CK1δ IC50, read-out: CK1σ IC50
CK1δ, sequence (P48730 whole entry): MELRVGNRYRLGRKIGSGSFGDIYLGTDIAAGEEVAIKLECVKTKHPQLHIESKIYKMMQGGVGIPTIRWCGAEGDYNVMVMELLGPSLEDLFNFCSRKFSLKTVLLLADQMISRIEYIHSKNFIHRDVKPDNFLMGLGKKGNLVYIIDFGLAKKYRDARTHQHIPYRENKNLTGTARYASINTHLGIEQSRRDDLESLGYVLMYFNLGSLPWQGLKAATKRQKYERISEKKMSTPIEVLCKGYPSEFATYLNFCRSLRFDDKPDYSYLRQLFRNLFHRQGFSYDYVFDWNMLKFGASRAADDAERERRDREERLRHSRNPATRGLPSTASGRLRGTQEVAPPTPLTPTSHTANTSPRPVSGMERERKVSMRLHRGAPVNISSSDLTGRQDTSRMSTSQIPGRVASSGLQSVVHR
Source text: (§1) [drawing 21] wherein the substituents W, X, Y, Z, and R^1, are as specified in the respective Table columns.

CDK13 = biological target: T1, CDK13 (Homo sapiens, UniProt Q14004); experiment: Competition binding assay, DiscoverX (Kinomescan), CDK13
T1 construct: purchased DiscoverX
T1 sequence (Q14004 whole entry): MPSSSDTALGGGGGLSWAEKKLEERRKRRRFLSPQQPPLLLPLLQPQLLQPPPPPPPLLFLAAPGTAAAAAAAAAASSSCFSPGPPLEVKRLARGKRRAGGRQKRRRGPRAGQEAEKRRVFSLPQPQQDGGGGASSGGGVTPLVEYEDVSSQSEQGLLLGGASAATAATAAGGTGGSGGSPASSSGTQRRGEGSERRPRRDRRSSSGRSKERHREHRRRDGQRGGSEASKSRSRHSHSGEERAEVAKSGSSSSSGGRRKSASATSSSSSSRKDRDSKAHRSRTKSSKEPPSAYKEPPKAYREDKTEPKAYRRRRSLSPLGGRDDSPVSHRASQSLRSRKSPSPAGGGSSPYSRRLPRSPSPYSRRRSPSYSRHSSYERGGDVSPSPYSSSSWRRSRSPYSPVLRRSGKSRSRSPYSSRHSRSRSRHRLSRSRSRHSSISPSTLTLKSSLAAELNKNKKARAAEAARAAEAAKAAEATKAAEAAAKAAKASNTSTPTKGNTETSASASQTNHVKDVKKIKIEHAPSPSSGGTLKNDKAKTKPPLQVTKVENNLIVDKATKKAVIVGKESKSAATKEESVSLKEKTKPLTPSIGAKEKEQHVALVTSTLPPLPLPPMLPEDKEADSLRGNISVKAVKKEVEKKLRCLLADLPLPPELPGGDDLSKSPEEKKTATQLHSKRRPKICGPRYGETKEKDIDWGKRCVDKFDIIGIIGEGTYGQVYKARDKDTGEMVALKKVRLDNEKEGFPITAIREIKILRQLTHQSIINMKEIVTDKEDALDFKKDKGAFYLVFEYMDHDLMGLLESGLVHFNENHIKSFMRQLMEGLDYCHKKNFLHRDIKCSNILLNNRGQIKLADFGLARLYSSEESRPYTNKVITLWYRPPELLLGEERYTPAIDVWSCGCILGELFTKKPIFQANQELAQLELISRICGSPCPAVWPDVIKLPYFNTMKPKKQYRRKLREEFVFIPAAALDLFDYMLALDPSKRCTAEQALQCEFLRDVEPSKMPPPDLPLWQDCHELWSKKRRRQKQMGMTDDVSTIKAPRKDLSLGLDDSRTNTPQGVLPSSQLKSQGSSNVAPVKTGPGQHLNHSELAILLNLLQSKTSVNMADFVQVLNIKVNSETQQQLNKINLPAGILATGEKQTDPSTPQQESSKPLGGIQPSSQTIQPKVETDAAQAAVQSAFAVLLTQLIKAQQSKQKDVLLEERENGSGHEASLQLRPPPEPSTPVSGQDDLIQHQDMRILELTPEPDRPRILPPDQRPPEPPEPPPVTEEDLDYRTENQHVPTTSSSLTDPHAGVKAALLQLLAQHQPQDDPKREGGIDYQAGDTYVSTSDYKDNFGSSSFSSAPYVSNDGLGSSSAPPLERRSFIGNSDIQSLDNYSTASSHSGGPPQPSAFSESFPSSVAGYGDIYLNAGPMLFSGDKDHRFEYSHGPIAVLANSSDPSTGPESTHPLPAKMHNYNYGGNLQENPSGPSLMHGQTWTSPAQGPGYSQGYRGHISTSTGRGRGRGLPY
Source text: as §1
In addition to screening a selected set of new inhibitors in CDK12/13 enzyme assays using Kinomescan™ technology, we tested all new compounds in a mechanism of action assay, which detects inhibition of phosphorylation of serine 2 (pSer2) on the C-terminal repeat domain (CTD) of RNA pol II. […] In order to confirm that CDK12/13 inhibition is driving cell death, we also plotted the growth inhibition pIC50's with pSer2 inhibition data. There was a good correlation when using the cell proliferation data from both U87 and MDA-MB-231 cell lines (FIGS. 5 and 6).

U87 cell line = experiment: Cell proliferation / growth inhibition, U87, 72 h (Cell-Titer Glo); format: cell-based; conditions: Homo sapiens, U-87 MG
CYP 3A4 = CYP 3A4 (Homo sapiens, UniProt P08684); experiment: Cytochrome P450 inhibition assay, 3A4; format: in vitro ADME; note: test concentration or dose not given here
CYP 3A4, sequence (P08684 whole entry): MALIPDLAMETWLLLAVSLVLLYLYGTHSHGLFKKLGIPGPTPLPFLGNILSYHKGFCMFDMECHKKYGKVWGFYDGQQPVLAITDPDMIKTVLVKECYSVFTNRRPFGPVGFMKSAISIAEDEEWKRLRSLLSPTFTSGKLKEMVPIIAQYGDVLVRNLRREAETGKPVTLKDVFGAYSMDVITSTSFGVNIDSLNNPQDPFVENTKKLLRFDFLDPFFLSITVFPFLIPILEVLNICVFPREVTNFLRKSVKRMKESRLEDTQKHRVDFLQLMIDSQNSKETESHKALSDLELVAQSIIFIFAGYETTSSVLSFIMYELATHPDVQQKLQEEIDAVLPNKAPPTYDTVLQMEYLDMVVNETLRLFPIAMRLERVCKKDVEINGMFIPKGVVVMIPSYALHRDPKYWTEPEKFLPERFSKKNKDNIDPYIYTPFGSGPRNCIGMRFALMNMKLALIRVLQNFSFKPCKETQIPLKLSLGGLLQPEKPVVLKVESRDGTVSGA

CYP 2C9, sequence (P11712 whole entry): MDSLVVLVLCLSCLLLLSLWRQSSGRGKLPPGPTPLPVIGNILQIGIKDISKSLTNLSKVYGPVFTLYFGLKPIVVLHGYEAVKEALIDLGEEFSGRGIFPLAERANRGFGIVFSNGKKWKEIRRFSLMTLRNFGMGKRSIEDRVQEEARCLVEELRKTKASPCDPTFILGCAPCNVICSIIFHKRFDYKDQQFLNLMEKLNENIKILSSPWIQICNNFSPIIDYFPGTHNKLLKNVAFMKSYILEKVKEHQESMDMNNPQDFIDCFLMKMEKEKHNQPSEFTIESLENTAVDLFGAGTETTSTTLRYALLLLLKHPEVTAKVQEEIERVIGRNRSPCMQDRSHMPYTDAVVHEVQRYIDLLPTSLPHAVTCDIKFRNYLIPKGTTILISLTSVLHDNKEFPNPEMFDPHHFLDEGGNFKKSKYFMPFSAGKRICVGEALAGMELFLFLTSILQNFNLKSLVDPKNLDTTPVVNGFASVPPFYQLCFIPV

Compound: Cn1cc(-n2cnc3c(NCc4nc5cc(Cl)c(Cl)cc5[nH]4)nc(N4CCOCC4)nc32)cn1 [Compound 5, N-((5,6-dichloro-1H-benzo[d]imidazol-2-yl)methyl)-9-(1-methyl-1H-pyrazol-4-yl)-2-morpholino-9H-purin-6-amine]
- CYP inhibition 2C9 (CYP 2C9): 70 % inh
- half-life [1]: 12 min
- IC50 (CK1δ): 2940 nM
- Kd (CDK13): 5 nM
- GI50 (U87 cell line): < 2 nM
- CYP inhibition 3A4 (CYP 3A4): 89 % inh
